Converted amounts (≈) assume the structure as drawn. Bridge positions count the residues as written; N and C are the ends. Square brackets hold non-standard residues; d marks the D form. Ends that are not written are not given here. Peptide text beside a SMILES is read from it. Sar = CNCC(=O)O
Legend:
[1] = system: Staphylococcus aureus (MRSA); type: cell-based
Procedure: (§1) The radial diffusion assay in agarose gels is conducted using radiodiffusion and gel overlay techniques as described by Lehrer, R. I. et al. J Immunol Meth (1991) 137:167-173. […] In some cases, the underlay was supplemented with 100 mM NaCl. The units of activity in the radial diffusion assay were measured as described; 10 units correspond to a 1 mm diameter clear zone around the sample well. FIGS. 1-6 show the results against five test organisms in units described as above. A synthetic protegrin (PG-1) containing two cystines (sPG-1) or PG-1 in linear form were used as controls.
(§2) Several illustrative tachytegrins were synthesized as described in Example 1 and tested for activity against Staphylococcus aureus (MRSA), Pseudomonas (Psa), VREF, Candida and E. coli as described in Example 2. The results shown in Table 1 as minimal inhibitory concentration (MIC) in ug/ml were obtained with the C-terminal amidated forms except for the last two which were tested as the free acids, as indicated by *. In all peptides in Table 1, X is MeGly.

VREF = type: cell-based
Procedure: as §1, §2

[2] = system: T. vaginallis strain C1 (ATCC 30001); assay: Trichomonas vaginalis motility, lysis and growth; type: cell-based, Trichomonas vaginallis
Procedure: For Trichomonas vaginallis, strain C1 (ATCC 30001) is grown as described by Gorrell, T. E. et al., Carlsberg Res Comm (1984) 49:259-268. […] Soon thereafter, the organisms become permeable to trypan blue, and, over the ensuing 15-30 minutes, lyse. As expected, such organisms fail to grow when introduced into their customary growth medium (Diamond's medium).

Pseudomonas (Psa) = assay: minimal inhibitory concentration, Pseudomonas; type: cell-based; conditions: C-terminal amidated forms except * (free acids)
Procedure: as §1, §2

E. coli ML-35p = assay: radial diffusion assay in agarose gels, E. coli; type: cell-based
Procedure: Media for testing antimicrobial activity are designed to mimic certain specific conditions. The standard buffer medium, medium A, uses an underlay agar with the following composition: 0.3 mg/ml of trypticase soy broth powder, 1% w/v agarose and 10 mM sodium phosphate buffer (final pH 7.4). This will be designated either “medium A” or “standard in vitro conditions” herein.
A second medium contains 100 mM NaCl in order to mimic the salt levels in blood and tissue fluids. This will be designated “medium B” or “salt medium” herein.
as §1

E. coli = type: cell-based
Procedure: as §1, §2

[3] = FIG. 1, E. coli, in the absence of salt
[4] = FIG. 1, E. coli, in the presence of 100 mM NaCl
[5] = FIG. 4, E. coli ML-35p, in the absence of salt
[6] = FIG. 4, E. coli ML-35p, in the presence of 100 mM NaCl

Compound: CC(C)C[C@@H]1NC(=O)[C@@H](NC(=O)CNC(=O)CNC(=O)[C@@H](N)CCCNC(=N)N)CSSC[C@@H](C(=O)N[C@@H](CCCNC(=N)N)C(=O)O)NC(=O)[C@H](C(C)C)NC(=O)[C@H](CCCNC(=N)N)NC(=O)[C@H](C(C)C)NC(=O)[C@H](C)NC(=O)[C@H](Cc2ccccc2)NC(=O)[C@H](CCCNC(=N)N)NC(=O)CNC(=O)[C@H](C(C)C)NC(=O)[C@H](C)NC(=O)[C@H](Cc2ccc(O)cc2)NC(=O)[C@H](CCCNC(=N)N)NC1=O [RGGCLRYAVGRFAVRVCR] (H-RGGCLRYAVGRFAVRVCR-OH; disulfide 4-17; N-terminus assumed)
- minimal inhibitory concentration (MIC) MRSA [1]: >32 µg/mL
- minimal inhibitory concentration (MIC) VREF (VREF): 5.3 µg/mL (≈ 2.6 µM)

Compound: PG-3: protegrin PG-3 (RGGGLCYCRRRFCVCVGR; ends and bridges not checked; cysteine pairing not given here; UniProt P32196 131-148, looked up)
- motility of T. vaginallis ([2]; 25 ug/ml): retain their motility

Compound: CC(C)C[C@@H]1NC(=O)[C@@H](NC(=O)[C@H](Cc2ccccc2)NC(=O)CNC(=O)[C@@H](N)CCCNC(=N)N)CSSC[C@@H](C(=O)N[C@H](C(=O)N[C@@H](CCCNC(=N)N)C(=O)O)C(C)C)NC(=O)[C@H](Cc2ccccc2)NC(=O)[C@H](CCCNC(=N)N)NC(=O)[C@H](C(C)C)NC(=O)CN(C)C(=O)[C@H](Cc2ccccc2)NC(=O)[C@H](CCCNC(=N)N)NC(=O)CNC(=O)[C@H](C(C)C)NC(=O)CN(C)C(=O)[C@H](Cc2ccc(O)cc2)NC(=O)[C@H](CCCNC(=N)N)NC1=O [RGFCLRYXVGRFXVRFCVR] (H-RGFCLRY[Sar]VGRF[Sar]VRFCVR-OH; disulfide 4-17 (inferred); N-terminus assumed)
- minimal inhibitory concentration (MIC) MRSA [1]: >32 µg/mL
- minimal inhibitory concentration (MIC) VREF (VREF): 12 µg/mL (≈ 5.28 µM)

Compound: CC(C)C[C@@H]1NC(=O)[C@@H](NC(=O)CNC(=O)CNC(=O)[C@@H](N)CCCNC(=N)N)CSSC[C@@H](C(=O)N[C@@H](CCCNC(=N)N)C(N)=O)NC(=O)[C@H](C(C)C)NC(=O)[C@H](CCCNC(=N)N)NC(=O)[C@H](C(C)C)NC(=O)[C@H](C)NC(=O)[C@H](Cc2ccccc2)NC(=O)[C@H](CCCNC(=N)N)NC(=O)CN(C)C(=O)[C@H](CCCNC(=N)N)NC(=O)[C@H](C)NC(=O)[C@H](Cc2ccc(O)cc2)NC(=O)[C@H](CCCNC(=N)N)NC1=O [RGGCLRYARXRFAVRVCR] (H-RGGCLRYAR[Sar]RFAVRVCR-NH2; disulfide 4-17 (inferred); N-terminus assumed)
- minimal inhibitory concentration (MIC) Paa (Pseudomonas (Psa)): 5.7 µg/mL (≈ 2.7 µM)
- minimal inhibitory concentration (MIC) MRSA [1]: >32 µg/mL

Compound: tachytegrin: tachytegrin with disulfide bridges C4-C17 and C8-C13 (RGGCRLYCRRRFCVVGCR; disulfide 8-13, 4-17)
- antibacterial activity, radial diffusion (effectiveness) (E. coli ML-35p; [3]): slightly more effective than sPG-1 although slightly less effective than linear PG-1
- antibacterial activity, radial diffusion (effectiveness) (E. coli ML-35p; [4]): comparably effective

Compound: CC(C)C[C@@H]1NC(=O)[C@@H](NC(=O)[C@H](Cc2ccccc2)NC(=O)CNC(=O)[C@@H](N)CCCNC(=N)N)CSSC[C@@H](C(=O)N[C@@H](CCCNC(=N)N)C(N)=O)NC(=O)[C@H](C(C)C)NC(=O)[C@H](Cc2ccccc2)NC(=O)[C@H](CCCNC(=N)N)NC(=O)[C@H](C(C)C)NC(=O)CN(C)C(=O)[C@H](Cc2ccccc2)NC(=O)[C@H](CCCNC(=N)N)NC(=O)CNC(=O)[C@H](C(C)C)NC(=O)CN(C)C(=O)[C@H](Cc2ccc(O)cc2)NC(=O)[C@H](CCCNC(=N)N)NC1=O [RGFCLRYXVGRFXVRFVCR] (H-RGFCLRY[Sar]VGRF[Sar]VRFVCR-NH2; disulfide 4-18 (inferred); N-terminus assumed)
- minimal inhibitory concentration (MIC) MRSA [1]: >54 µg/mL

Compound: cis-parevin: parevin with disulfide bridges C5-C8 and C13-C16 (RGGRCLYCRRRFCIVCG; disulfide 13-16, 5-8)
- antibacterial activity, radial diffusion (effectiveness) (E. coli ML-35p; [5]): comparably effective in the absence of salt and both were more effective than sPG-1
- antibacterial activity, radial diffusion (effectiveness) (E. coli ML-35p; [6]): maintained their effectiveness and were comparable

Compound: CC(C)C[C@@H]1NC(=O)[C@@H](NC(=O)[C@H](Cc2ccccc2)NC(=O)CNC(=O)[C@@H](N)CCCNC(=N)N)CSSC[C@@H](C(=O)N[C@H](C(=O)N[C@@H](CCCNC(=N)N)C(N)=O)C(C)C)NC(=O)[C@H](Cc2ccccc2)NC(=O)[C@H](CCCNC(=N)N)NC(=O)[C@H](C(C)C)NC(=O)[C@H]([C@@H](C)O)NC(=O)[C@H](Cc2ccccc2)NC(=O)[C@H](CCCNC(=N)N)NC(=O)[C@@H]2CCCN2C(=O)[C@H](C(C)C)NC(=O)[C@H]([C@@H](C)O)NC(=O)[C@H](Cc2ccc(O)cc2)NC(=O)[C@H](CCCNC(=N)N)NC1=O [RGFCLRYTVPRFTVRFCVR] (H-RGFCLRYTVPRFTVRFCVR-NH2; disulfide 4-17; N-terminus assumed)
- minimal inhibitory concentration (MIC) Paa (Pseudomonas (Psa)): 0.57 µg/mL (≈ 0.24 µM)
- minimal inhibitory concentration (MIC) E. Coli (E. coli): 0.99 µg/mL (≈ 0.417 µM)
- minimal inhibitory concentration (MIC) MRSA [1]: 1.88 µg/mL (≈ 0.792 µM)

Compound: CC(C)C[C@@H]1NC(=O)[C@@H](NC(=O)CNC(=O)CNC(=O)[C@@H](N)CCCNC(=N)N)CSSC[C@@H](C(=O)N[C@@H](CCCNC(=N)N)C(N)=O)NC(=O)[C@H](C(C)C)NC(=O)[C@H](CCCNC(=N)N)NC(=O)[C@H](C(C)C)NC(=O)[C@H](C)NC(=O)[C@H](Cc2ccccc2)NC(=O)[C@H](CCCNC(=N)N)NC(=O)[C@@H]2CCCN2C(=O)[C@H](C(C)C)NC(=O)[C@H](C)NC(=O)[C@H](Cc2ccc(O)cc2)NC(=O)[C@H](CCCNC(=N)N)NC1=O [RGGCLRYAVPRFAVRVCR] (H-RGGCLRYAVPRFAVRVCR-NH2; disulfide 4-17; N-terminus assumed)
- minimal inhibitory concentration (MIC) Paa (Pseudomonas (Psa)): 0.05 µg/mL (≈ 0.0241 µM)
- minimal inhibitory concentration (MIC) MRSA [1]: >128 µg/mL

Compound: PG-1: protegrin PG-1 (RGGRLCYCRRRFCVCVGR; ends and bridges not checked; also: two disulfide bonds, pairing not given here; UniProt P32194 131-148, looked up)
- motility of T. vaginallis ([2]; 50 ug/ml, RPMI+1% heat-activated fetal calf serum, within a few minutes after exposure): becomes stationary
- lysis of T. vaginallis ([2]; 50 ug/ml, over the ensuing 15-30 minutes): lyse
- growth of exposed organisms in Diamond's medium ([2]; after exposure to 50 ug/ml): fail to grow

Compound: trans-parevin: parevin with disulfide bridges C5-C16 and C8-C13 (RGGRCLYCRRRFCVVCGR; disulfide 8-13, 5-16)
- antibacterial activity, radial diffusion (effectiveness) (E. coli ML-35p; [3]): slightly more effective than sPG-1 although slightly less effective than linear PG-1
- antibacterial activity, radial diffusion (effectiveness) (E. coli ML-35p; [4]): comparably effective
- antibacterial activity, radial diffusion (effectiveness) (E. coli ML-35p; [5]): comparably effective in the absence of salt and both were more effective than sPG-1
- antibacterial activity, radial diffusion (effectiveness) (E. coli ML-35p; [6]): maintained their effectiveness and were comparable

Reference: USRE38828E1, “Parevins and tachytegrins” (IntraBiotics Pharmaceuticals, Inc., priority 1995, dated 2005)
